No end group written: not given here.
Columns and labels:
[1] = target: T1, melanocortin receptor 2 (MC2R) (Homo sapiens, UniProt Q01718); test: Activity in vitro: calcium ion signal in CHO-K1 cells expressing MC2R; assay type: cell-based; conditions: for Binding ability to MC2R and biological activity (in words) / Bottom / HillSlope / Top / EC50: CHO-K1 cells expressing MC2R; for Bottom / HillSlope / Top: curve fit; for Bottom / HillSlope / Top / EC50: calcium ion signal; for EC50: read-out: EC50 (half inhibitory concentration)
T1 construct: expressed in transfected cells; host or cells: CHO-K1
Method: ACTH was a receptor agonist of melanocortin receptor 2 (MC2R). The combination of ACTH and MC2R could stimulate the signal pathway of the downstream and change the signal factors such as calcium ions and cAMP. The binding ability of ACTH and MC2R was determined by detecting calcium ion signals, and then the cell activity of ACTH in vitro was judged.
The samples in example 8 and example 10 were taken for activity study in vitro. CHO-K1 cells expressing MC2R were cultured in 10 cm vessels and stored at 37° C. and 5% CO2.

[2] = Study of stability, packed samples stored at 2-8° C. for 6 months; assay type: physicochemical; conditions: for Conclusion: Character / Conclusion: Moisture / Conclusion: Polymer / Conclusion: Related substances (maximum single impurity) / Conclusion: The purity of chromatographic: up to 6 months
Method: The samples prepared in example 8 were packed in double-layer medical low-density polyethylene bags and a layer of aluminum-plastic composite bags and stored at 2-8° C. for evaluation at 1, 2, 3 and 6 months respectively.
The samples prepared in example 9 were packed in double-layer medical low-density polyethylene bags and a layer of aluminum-plastic composite bags and stored at 2-8° C. for evaluation at 1, 2, 3 and 6 months respectively.

[3] = test system: infantile spasticity (IS) rat model; test: Incubation period of spasticity in infantile spasticity (IS) rat model (betamethasone/NMDA); assay type: in vivo, Sprague Dawley (SD) rats
Method: (1) Method: To investigate the effect of SEQ ID NO.4 on the incubation period of spasticity in infantile spasticity (IS) rat model.
Incubation period: Time from NMDA injection to onset of spasticity (time is measured in units of seconds).
Sham group: Sprague Dawley (SD) rats were intraperitoneally injected with saline (10 mL/kg each time) at 9:00 am and 19:00 pm respectively on the 15th day of pregnancy, and the neonatal rats (n=12) were intraperitoneally injected with saline of the same volume as the drug group on the 15th day after birth. Model group (IS group): SD rats were intraperitoneally injected with betamethasone (0.4 mg/kg each time) at 9:00 am and 19:00 pm respectively on the 15th day of pregnancy. The neonatal rats (n=12) were intraperitoneally injected with N-methyl-D-aspartic acid (NMDA, 15 mg/kg) at 15:30 pm on the 15th day after birth to establish infant spasticity (neonatal spasticity) rat model, and the incubation period from NMDA injection to spasticity was recorded. […] After the second injection of SEQ ID NO.4 for 30 minutes (i.e. 15:30 pm), NMDA (15 mg/kg) was intraperitoneally injected to establish infant spasticity rat model, and the incubation period from NMDA injection to spasticity was recorded.

[4] = target: heart receptor protein (hERG) (Homo sapiens, UniProt Q12809); test: in vitro
Excerpt: (§1) The cardiac […] toxicity of drugs was judged by detecting the affinity between drugs and heart receptor protein (hERG) in vitro.

hERG = hERG (Homo sapiens, UniProt Q12809); test: in vitro; conditions: human
Excerpt: as §1

Sequence of heart receptor protein (hERG) (Q12809 whole entry): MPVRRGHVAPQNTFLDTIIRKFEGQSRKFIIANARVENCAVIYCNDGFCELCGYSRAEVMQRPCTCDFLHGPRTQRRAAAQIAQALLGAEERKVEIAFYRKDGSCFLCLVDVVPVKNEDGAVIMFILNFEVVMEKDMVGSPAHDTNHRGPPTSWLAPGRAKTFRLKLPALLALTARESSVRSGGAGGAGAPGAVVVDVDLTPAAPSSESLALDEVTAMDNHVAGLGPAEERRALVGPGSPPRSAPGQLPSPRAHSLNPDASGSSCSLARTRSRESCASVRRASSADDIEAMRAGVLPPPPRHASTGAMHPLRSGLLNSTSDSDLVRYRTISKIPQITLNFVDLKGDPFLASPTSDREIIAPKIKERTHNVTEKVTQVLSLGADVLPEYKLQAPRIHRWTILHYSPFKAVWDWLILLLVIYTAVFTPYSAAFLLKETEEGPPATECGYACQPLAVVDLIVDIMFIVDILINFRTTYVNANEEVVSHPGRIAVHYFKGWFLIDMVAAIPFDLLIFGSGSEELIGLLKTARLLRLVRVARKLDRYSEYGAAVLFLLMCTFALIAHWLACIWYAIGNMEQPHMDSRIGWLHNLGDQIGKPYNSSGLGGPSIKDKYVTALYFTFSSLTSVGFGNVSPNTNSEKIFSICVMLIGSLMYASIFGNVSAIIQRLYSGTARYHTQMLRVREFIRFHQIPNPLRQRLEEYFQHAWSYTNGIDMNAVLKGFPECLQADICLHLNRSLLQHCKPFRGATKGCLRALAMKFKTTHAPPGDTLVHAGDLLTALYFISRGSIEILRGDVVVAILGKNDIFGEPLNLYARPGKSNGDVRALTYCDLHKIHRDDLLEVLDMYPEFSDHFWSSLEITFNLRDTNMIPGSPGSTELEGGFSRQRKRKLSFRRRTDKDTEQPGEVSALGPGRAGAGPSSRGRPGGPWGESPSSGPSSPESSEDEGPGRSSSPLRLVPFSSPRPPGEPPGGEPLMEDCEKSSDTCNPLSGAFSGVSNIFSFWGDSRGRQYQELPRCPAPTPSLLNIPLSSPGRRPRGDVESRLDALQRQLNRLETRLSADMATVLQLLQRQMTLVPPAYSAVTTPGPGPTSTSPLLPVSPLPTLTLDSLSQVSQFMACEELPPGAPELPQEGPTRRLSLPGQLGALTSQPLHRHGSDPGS
T1 sequence (Q01718 whole entry, species assumed): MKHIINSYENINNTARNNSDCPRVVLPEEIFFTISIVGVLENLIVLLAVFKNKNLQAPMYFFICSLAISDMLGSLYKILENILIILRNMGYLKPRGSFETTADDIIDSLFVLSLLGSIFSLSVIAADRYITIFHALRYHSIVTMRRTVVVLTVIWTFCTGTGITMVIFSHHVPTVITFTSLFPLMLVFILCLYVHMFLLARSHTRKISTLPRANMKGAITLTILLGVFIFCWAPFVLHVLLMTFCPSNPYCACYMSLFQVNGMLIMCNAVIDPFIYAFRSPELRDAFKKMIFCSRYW
T1 sequence (Q8TCY5 whole entry partner, species assumed): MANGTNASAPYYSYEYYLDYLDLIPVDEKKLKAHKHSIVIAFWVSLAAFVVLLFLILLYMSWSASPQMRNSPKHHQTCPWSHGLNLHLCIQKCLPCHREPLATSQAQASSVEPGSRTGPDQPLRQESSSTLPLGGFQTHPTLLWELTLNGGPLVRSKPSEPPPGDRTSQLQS
Sequence of hERG (Q12809 whole entry): as the sequence (Q12809 whole entry) above

Question: With “H-SYSMEHFRWGKPVGKKRRPVKVYPNGAEDESAEAFPLEF-OH [Example 8]” as the substance, how does the “Binding ability to MC2R and biological activity (in words)” value [1] read?
Answer: Its value is “had binding ability to melanocortin receptor 2 (MC2R) and showed biological activity”.

Question: What about the Bottom [1] of the same substance?
Answer: Its Bottom is −2.739.

Question: And the HillSlope [1]?
Answer: The HillSlope was 0.9745.

Question: What about the Top [1] of the same substance?
Answer: The Top was 100.9.

Question: What about the “Activity of high-purity ACTH relative to low-purity ACTH” value ([1]; ratio of EC50 values) of the same substance?
Answer: The value was 1.6 times.

Question: And the “Character (Visual)” value ([2]; 2-8° C., 1 month)?
Answer: The value was “White”.

Question: And the “Moisture, Karl Fischer” value ([2]; 2-8° C., 1 month)?
Answer: Its value is 7.3%.

Question: And the “Polymer (impurity with molecular weight greater than the peptide), HPLC” value (“Polymer … HPLC” for short) ([2]; 2-8° C., 1 month)?
Answer: The value was 0.05%.

Question: And the “Related substances (maximum single impurity), HPLC” value ([2]; 2-8° C., 1 month)?
Answer: The value was 0.17%.

Question: And the “Related substances (total impurities), HPLC” value ([2]; 2-8° C., 1 month)?
Answer: Its value is 0.29%.

Question: What about the “The purity of chromatographic, HPLC” value ([2]; 2-8° C., 1 month) of the same substance?
Answer: The value was 99.71%.

Question: What about the “Character (Visual)” value ([2]; 2-8° C., 2 months) of the same substance?
Answer: The value was “White”.

Question: And the “Moisture, Karl Fischer” value ([2]; 2-8° C., 2 months)?
Answer: Its value is 7.5%.

Question: And the “Polymer … HPLC” value ([2]; 2-8° C., 2 months)?
Answer: The value was 0.03%.

Question: What about the “Related substances (maximum single impurity), HPLC” value ([2]; 2-8° C., 2 months) of the same substance?
Answer: Its value is 0.17%.

Question: And the “Related substances (total impurities), HPLC” value ([2]; 2-8° C., 2 months)?
Answer: The value was 0.29%.

Question: And the “The purity of chromatographic, HPLC” value ([2]; 2-8° C., 2 months)?
Answer: The value was 99.71%.

Question: And the “Character (Visual)” value ([2]; 2-8° C., 3 months)?
Answer: Its value is “White”.

Question: What about the “Moisture, Karl Fischer” value ([2]; 2-8° C., 3 months) of the same substance?
Answer: The value was 8.4%.

Question: And the “Polymer … HPLC” value ([2]; 2-8° C., 3 months)?
Answer: The value was 0.06%.

Question: And the “Related substances (maximum single impurity), HPLC” value ([2]; 2-8° C., 3 months)?
Answer: Its value is 0.16%.

Question: What about the “Related substances (total impurities), HPLC” value ([2]; 2-8° C., 3 months) of the same substance?
Answer: The value was 0.38%.

Question: What about the “The purity of chromatographic, HPLC” value ([2]; 2-8° C., 3 months) of the same substance?
Answer: The value was 99.62%.

Question: And the “Character (Visual)” value ([2]; 2-8° C., 6 months)?
Answer: The value was “White”.

Question: What about the “Moisture, Karl Fischer” value ([2]; 2-8° C., 6 months) of the same substance?
Answer: Its value is 8.3%.

Question: What about the “Polymer … HPLC” value ([2]; 2-8° C., 6 months) of the same substance?
Answer: The value was 0.04%.

Question: And the “Related substances (maximum single impurity), HPLC” value ([2]; 2-8° C., 6 months)?
Answer: The value was 0.11%.

Question: And the “Related substances (total impurities), HPLC” value ([2]; 2-8° C., 6 months)?
Answer: Its value is 0.39%.

Question: What about the “The purity of chromatographic, HPLC” value ([2]; 2-8° C., 6 months) of the same substance?
Answer: The value was 99.61%.

Question: And the “Conclusion: Character” value ([2]; 2-8° C.)?
Answer: The value was “Qualified”.

Question: And the “Conclusion: Moisture” value ([2]; 2-8° C.)?
Answer: The value was “Qualified”.

Question: What about the “Conclusion: Polymer” value ([2]; 2-8° C.) of the same substance?
Answer: Its value is “Qualified”.

Question: What about the “Conclusion: Related substances (maximum single impurity)” value ([2]; 2-8° C.) of the same substance?
Answer: Its value is “Qualified”.

Question: And the “Conclusion: The purity of chromatographic” value ([2]; 2-8° C.)?
Answer: The value was “Qualified”.

Question: What about the “Character (Visual)” value ([2]; Start) of the same substance?
Answer: Its value is “White”.

Question: What about the “Moisture, Karl Fischer” value ([2]; Start) of the same substance?
Answer: The value was 5.0%.

Question: What about the “Polymer … HPLC” value ([2]; Start) of the same substance?
Answer: The value was 0.03%.

Question: What about the “Related substances (maximum single impurity), HPLC” value ([2]; Start) of the same substance?
Answer: Its value is 0.07%.

Question: And the “Related substances (total impurities), HPLC” value ([2]; Start)?
Answer: Its value is 0.13%.

Question: What about the “The purity of chromatographic, HPLC” value ([2]; Start) of the same substance?
Answer: The value was 99.88%.

Question: Which results are given for “H-SYSMEHFRWGKPVGKKRRPVKVYPNGAEDESAEAFPLEF-OH [Example 10, reference compound]”?
Answer: Binding ability to MC2R and biological activity (in words) [1]: had binding ability to melanocortin receptor 2 (MC2R) and showed biological activity; Bottom [1]: −1.846; HillSlope [1]: 1.249; Top [1]: 94.88

Question: Which results are given for “SYSMEHFRWGKPVGKKRRPVKVYPDGAEDESAEAFPLEF (also: deamidated at N25 (given as D), Asp or isoAsp not given here) [Example 9]”?
Answer: Incubation period of spasticity vs IS group ([3]; high-dose group 0.28 U/g i.p. twice, neonatal rats day 15, P<0.0001): significantly prolong; Incubation period of spasticity vs IS group ([3]; low-dose group 0.01 U/g i.p. twice, neonatal rats day 15, p<0.001): significantly prolong; Character (Visual) ([2]; 2-8° C., 1 month): White; Moisture, Karl Fischer ([2]; 2-8° C., 1 month): 7.5%; Polymer (impurity with molecular weight greater than the peptide), HPLC ([2]; 2-8° C., 1 month): 0.04%; Related substances (maximum single impurity), HPLC ([2]; 2-8° C., 1 month): 0.24%; Related substances (total impurities), HPLC ([2]; 2-8° C., 1 month): 0.42%; The purity of chromatographic, HPLC ([2]; 2-8° C., 1 month): 99.58%; Character (Visual) ([2]; 2-8° C., 2 months): White; Moisture, Karl Fischer ([2]; 2-8° C., 2 months): 7.6%; Polymer (impurity with molecular weight greater than the peptide), HPLC ([2]; 2-8° C., 2 months): 0.05%; Related substances (maximum single impurity), HPLC ([2]; 2-8° C., 2 months): 0.17%; Related substances (total impurities), HPLC ([2]; 2-8° C., 2 months): 0.43%; The purity of chromatographic, HPLC ([2]; 2-8° C., 2 months): 99.57%; Character (Visual) ([2]; 2-8° C., 3 months): White; Moisture, Karl Fischer ([2]; 2-8° C., 3 months): 8.5%; Polymer (impurity with molecular weight greater than the peptide), HPLC ([2]; 2-8° C., 3 months): 0.06%; Related substances (maximum single impurity), HPLC ([2]; 2-8° C., 3 months): 0.27%; Related substances (total impurities), HPLC ([2]; 2-8° C., 3 months): 0.46%; The purity of chromatographic, HPLC ([2]; 2-8° C., 3 months): 99.54%; Character (Visual) ([2]; 2-8° C., 6 months): White; Moisture, Karl Fischer ([2]; 2-8° C., 6 months): 8.6%; Polymer (impurity with molecular weight greater than the peptide), HPLC ([2]; 2-8° C., 6 months): 0.06%; Related substances (maximum single impurity), HPLC ([2]; 2-8° C., 6 months): 0.10%; Related substances (total impurities), HPLC ([2]; 2-8° C., 6 months): 0.49%; Stability under the storage condition (in words) ([2]; 2-8° C., 6 months): stable; The purity of chromatographic, HPLC ([2]; 2-8° C., 6 months): 99.51%; Conclusion: Character ([2]; 2-8° C.): Qualified; Conclusion: Moisture ([2]; 2-8° C.): Qualified; Conclusion: Polymer ([2]; 2-8° C.): Qualified; Conclusion: Related substances (maximum single impurity) ([2]; 2-8° C.): Qualified; Conclusion: The purity of chromatographic ([2]; 2-8° C.): Qualified; Character (Visual) ([2]; Start): White; Moisture, Karl Fischer ([2]; Start): 5.2%; Polymer (impurity with molecular weight greater than the peptide), HPLC ([2]; Start): 0.03%; Related substances (maximum single impurity), HPLC ([2]; Start): 0.16%; Related substances (total impurities), HPLC ([2]; Start): 0.42%; The purity of chromatographic, HPLC ([2]; Start): 99.58%

Question: Which results are given for “SYSMEHFRWGKPVGKKRRPVKVYPNGAEDESAEAFPLEF [Example 8]”?
Answer: EC50 [1]: 180 nM; Stability under the storage condition (in words) ([2]; 2-8° C., 6 months): stable; Cardiac metabolic toxicity (in words) [4]: no cardiac metabolic toxicity; IC50 [4]: > 10000 nM; inhibition at 10000 nM (hERG): -1.28%

Question: What does the source list for “SYSMEHFRWGKPVGKKRRPVKVYPNGAEDESAEAFPLEF [Example 10, reference compound]”?
Answer: EC50 [1]: 288 nM; Cardiac metabolic toxicity (in words) [4]: no cardiac metabolic toxicity

— patent US12433936B2, “High-purity adrenocorticotropic hormone analogue and a large-scale preparation method thereof” (Nanjing Hanxin Pharmaceutical Technology Co., Ltd., priority 2021, dated 2025)
